In US10047057B2, “Functionalized tyrosine kinase inhibitors modified with precious metal electrophiles and methods associated therewith” (WAKE FOREST UNIVERSITY, priority 2014, dated 2018):

Columns and labels:
NCI-H460 cells = test: Cell proliferation assay (Celltiter 96), NCI-H460; settings: Homo sapiens, NCI-H460, read-out: IC50 NCI-H460
Description: (§1) The cell line NCI-H460 is a model of a large-cell carcinoma and is characterized by wild-type EGFR-TK. By contrast, NCI-H1975 adenocarcinoma cells harbor a point mutation (L858R) in exon 21 as well as a secondary mutation (T790M) at the bottom of the hydrophobic ATP binding pocket.
(§2) The human non-small cell lung cancer cell lines, NCI-H460 (large cell) and NCI-H1975 (adenocarcinoma), were obtained from the American Type Culture Collection (Rockville, Md., USA). […] Cells were incubated at a constant temperature at 37° C. in a humidified atmosphere containing 5% CO2 and were subcultured every 2 to 3 days in order to maintain cells in logarithmic growth. The cytotoxicity studies were carried out according to a standard protocol using the Celltiter 96 aqueous nonradioactive cell proliferation assay kit (Promega, Madison, Wis.). Stock solutions (10 mM) of all drugs were made in DMF and serially diluted with media prior to incubation with cancer cells. IC50 values were calculated from dose-response curves using sigmoidal curve fits in GraphPad Prism (GraphPad Software, La Jolla, Calif.).

NCI-H1975 cells = test: Cell proliferation assay (Celltiter 96), NCI-H1975; settings: read-out: IC50 NCI-H1975; Table 1; IC50 ± S.D., two experiments in triplicate; L858R/T790M EGFR
Description: as §1, §2

`CCOc1cc2ncnc(Nc3ccc(F)c(Cl)c3)c2cc1N(C)C(=S)NC` [Compound 7, 1-(4-((3-Chloro-4-fluorophenyl)amino)-7-ethoxyquinazolin-6-yl)-1,3-dimethylthiourea] showed an IC50 (NCI-H460 cells) of 36 ± 4.4 µM and an IC50 (NCI-H1975 cells) of 51.7 ± 1.1 µM.
